The IC50 is the midpoint of a concentration-inhibition curve.

Where a name gives a salt, the structure may show the parent alone.

The target in this experiment is T1, recombinant human renin (Homo sapiens, UniProt P00797).
T1 sequence (P00797 67-406): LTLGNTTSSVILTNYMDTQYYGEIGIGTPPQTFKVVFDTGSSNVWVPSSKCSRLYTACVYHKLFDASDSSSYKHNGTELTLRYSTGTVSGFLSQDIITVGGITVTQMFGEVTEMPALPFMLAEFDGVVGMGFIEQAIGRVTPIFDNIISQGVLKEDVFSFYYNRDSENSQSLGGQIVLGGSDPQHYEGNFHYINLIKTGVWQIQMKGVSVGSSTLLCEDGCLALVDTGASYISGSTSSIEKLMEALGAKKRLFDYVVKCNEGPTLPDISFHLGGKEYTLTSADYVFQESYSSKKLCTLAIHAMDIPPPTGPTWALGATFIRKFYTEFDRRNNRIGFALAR
Put plainly: Primary renin inhibition assay: IC50 in buffer, 384 well MTP (AngI measured by EIA). It is filed as biochemical. The settings on record: human tetradecapeptide (1-14) substrate, incubated at 37° C. for 3 h, AngI quantified by EIA. As to the method: 1. Enzyme Immuno Assay (EIA) to Estimate AngI Accumulation and Renin Inhibition
1.1 Preparation of AngI-BSA Conjugate
1.3 mg (1 μmol) of AngI [1-10 (Bachem, H-1680)] and 17 mg (0.26 μmol) of BSA (Fluka, 05475) were dissolved in 4 mL of 0.1M phosphate buffer, pH 7.4, after which 2 mL of a 1:100 dilution of glutaraldehyde in H2O (Sigma G-5882) was added dropwise. The mixture was incubated overnight at 4° C., then dialyzed against 2 liters of 0.9% NaCl, twice for 4 h at rt, followed by dialysis against 2 liters of PBS 1× overnight at rt. The solution was then filtered with a Syringe filter, 0.45 μm (Nalgene, Cat. No. 194-2545). The conjugate can be stored in polypropylene tubes in 0.05% sodium azide at 4° C. for at least 12 months.
1.2 Preparation of BSA-AngI Coated MTP
Microtiter plates (MPT384, MaxiSorp™, Nunc) were incubated overnight at 4° C. with 80 μl of AngI (1-10)/BSA conjugate, diluted 1:100'000 in PBS 1× in a teflon beaker (exact dilution dependent on batch of conjugate), emptied, filled with 90 μl of blocking solution [0.5% BSA (Sigma A-2153) in PBS 1×, 0.02% NaN3], and incubated for at least 2 h at rt, or overnight at 4° C. 96 well MTP (MaxiSorp™, Nunc) were coated with 200 μl conjugate and blocked with 250 μl blocking solution as above, except that the blocking solution contained 3% BSA. The plates can be stored in blocking solution at 4° C. for 1 month.
1.3 AngI-EIA in 384 Well MTP
The AngI (1-10)/BSA coated MTP were washed 3 times with wash buffer (PBS 1×, 0.01% Tween 20) and filled with 75 μl of primary antibody solution (anti-AngI antiserum, pre-diluted 1:10 in horse serum), diluted to a final concentration of 1:100'000 in assay buffer (PBS 1×, 1 mM EDTA, 0.1% BSA, pH 7.4). 5 μl of the renin reaction (or standards in assay buffer) (see below) were added to the primary antibody solution and the plates were incubated overnight at 4° C. After the incubation the plates were washed 3 times with wash buffer and incubated with secondary antibody [anti-rabbit IgG, linked to horseradish peroxidase (Amersham Bioscience, NA 934V), diluted 1:2'000 in wash buffer] for 2 h at rt. The plates were washed 3 times with wash buffer and then incubated for 1 h at rt with substrate solution [1.89 mM ABTS (2,2′-azino-di-(3-ethyl-benzthiazolinsulfonate)] (Roche Diagnostics, 102 946) and 2.36 mM H2O2 [30%, (Fluka, 95300] in substrate buffer (0.1M sodium acetate, 0.05M sodium dihydrogen phosphate, pH 4.2). The OD of the plate was read at 405 nm in a microplate reader (FLUOStar Optima from BMG). The production of AngI during the renin reaction was quantified by comparing the OD of the sample with the OD of a standard curve of AngI(1-10), measured in parallel.
2. Primary Renin Inhibition Assay: IC50 in Buffer, 384 Well MTP
The renin assay was adapted from an assay described before (Fischli W. et al., Hypertension, 1991, 18:22-31) and consists of two steps: in the first step, recombinant human renin is incubated with its substrate (commercial human tetradecapeptide renin substrate) to create the product Angiotensin I (AngI). In the second step, the accumulated AngI is measured by an immunological assay (enzyme immuno assay, EIA). The detailed description of this assay is found below. The EIA is very sensitive and well suited for renin activity measurements in buffer or in plasma. Due to the low concentration of renin used in this assay (2 fmol per assay tube or 10 pM) it is possible to measure inhibitor affinities in this primary assay down to low pM concentration.
Recombinant human renin (3 pg/μl) in assay buffer (PBS 1×, 1 mM EDTA, 0.1% BSA, pH 7.4), human tetradecapeptide (1-14) substrate (Bachem, M-1120) [5 μM in 10 mM HCl], hydroxyquinoline sulfate (Fluka, 55100) [30 mM in H2O] and assay buffer were premixed at 4° C. at a ratio of 100:30:10:145. 47.5 μl per well of this premix was transferred into polypropylene plates (MTP384, Nunc). […]
Regarding `COCCc1ccc(Cl)c(CN(C(=O)[C@@H]2[C@@H](c3ccc(OCCOc4c(Cl)cc(C)cc4Cl)cc3)C[C@@H]3CC[C@H]2N3)C2CC2)c1` [Example 26, (1R,2R,3S,5S)-3-{4-[2-(2,6-Dichloro-4-methyl-phenoxy)-ethoxy]-phenyl}-8-aza-bicyclo[3.2.1]octane-2-carboxylic acid [2-chloro-5-(2-methoxy-ethyl)-benzyl]-cyclopropyl-amide], the IC50 worked out at 0.14 nM.

As to `Cc1cc(Cl)c(O[C@@H]2CCN(c3ccc([C@H]4CCNC[C@@H]4C(=O)N(Cc4cc(CNC(=O)C5CC5)ccc4Cl)C4CC4)cn3)C2)c(Cl)c1` [Example 93, (3′R,4′S)-6-[(R)-3-(2,6-Dichloro-4-methyl-phenoxy)-pyrrolidin-1-yl]-1′,2′,3′,4′,5′,6′-hexahydro-[3,4′]bipyridinyl-3′-carboxylic acid {2-chloro-5-[(cyclopropanecarbonyl-amino)-methyl]-benzyl}-cyclopropyl-amide], the IC50 turned out to be 0.38 nM. Then `COCCCc1cc(CN(C(=O)C2=C(c3ccc(OCc4cc(-c5c(F)ccc(F)c5Cl)no4)cc3)CCNC2)C2CC2)c(Cl)cn1` [Example 34, 4-{4-[3-(2-Chloro-3,6-difluoro-phenyl)-isoxazol-5-ylmethoxy]-phenyl}-1,2,5,6-tetrahydro-pyridine-3-carboxylic acid [5-chloro-2-(3-methoxy-propyl)-pyridin-4-ylmethyl]-cyclopropyl-amide], with 0.1 nM; and `CNC(=O)OCCc1ccc(Cl)c(CN(C(=O)[C@H]2CNCC[C@@H]2c2ccc(N3CC[C@@H](Oc4c(Cl)cc(C)cc4Cl)C3)nc2)C2CC2)c1` [Example 110, Methyl-carbamic Acid 2-{4-chloro-3-[(cyclopropyl-{(3′R,4′S)-6-[(R)-3-(2,6-dichloro-4-methyl-phenoxy)-pyrrolidin-1-yl]-1′,2′,3′,4′,5′,6′-hexahydro-[3,4′]bipyridinyl-3′-carbonyl}-amino)-methyl]-phenyl}-ethyl Ester], with 0.39 nM; and `COCCCc1ccc(Cl)c(CN(C(=O)C2=C(c3ccc(OCCOc4c(Cl)cc(C)cc4Cl)cc3)C[C@@H]3CN(C(=O)NC4CC4)C[C@H]2N3)C2CC2)c1` [Example 13, (1R,5S)-7-{4-[2-(2,6-Dichloro-4-methyl-phenoxy)-ethoxy]-phenyl}-3,9-diaza-bicyclo[3.3.1]non-6-ene-3,6-dicarboxylic acid 3-cyclopropylamide 6-{cyclopropyl-[2-chloro-5-(3-methoxy-propyl)-benzyl]-amide}], with 0.8 nM. Regarding `COCCCc1ccc(Cl)c(CN(C(=O)C2=C(c3ccc(OCc4cc(-c5c(F)ccc(F)c5Cl)no4)cc3)C[C@@H]3CN(C(C)=O)C[C@H]2N3)C2CC2)c1` [Example 50, (1R,5S)-3-Acetyl-7-{4-[3-(2-chloro-3,6-difluoro-phenyl)-isoxazol-5-ylmethoxy]-phenyl}-3,9-diaza-bicyclo[3.3.1]non-6-ene-6-carboxylic acid [2-chloro-5-(3-methoxy-propyl)benzyl]-cyclopropyl-amide], the IC50 came to 0.24 nM. Then `COCCCc1ccc(Cl)c(CN(C(=O)C2=C(c3ccc(OCCOc4c(Cl)cc(C)cc4Cl)cc3)C[C@@H]3CN(C(=N)N)C[C@H]2N3)C2CC2)c1` [Example 11, (1R,5S)-3-Carbamimidoyl-7-{4-[2-(2,6-dichloro-4-methyl-phenoxy)-ethoxy]-phenyl}-3,9-diaza-bicyclo[3.3.1]non-6-ene-6-carboxylic acid cyclopropyl-[2-chloro-5-(3-methoxy-propyl)-benzyl]-amide Hydrochloride Salt], with 0.3 nM.

`COCCCc1cc(CN(C(=O)C2=C(c3ccc(OCCOc4c(Cl)cc(C)cc4Cl)nc3)C[C@@H]3CNC[C@H]2N3)C2CC2)c(Cl)cn1` [Example 42, (1R,5S)-7-{6-[2-(2,6-Dichloro-4-methyl-phenoxy)-ethoxy]-pyridin-3-yl}-3,9-diaza-bicyclo[3.3.1]non-6-ene-6-carboxylic acid [5-chloro-2-(3-methoxy-propyl)-pyridin-4-ylmethyl]-cyclopropyl-amide]: the IC50 turned out to be 0.26 nM.

Take `Cc1cc(Cl)c(O[C@@H]2CCN(c3ccc([C@H]4CCNC[C@@H]4C(=O)N(Cc4cc(CNC(=O)CC(F)(F)F)ccc4Cl)C4CC4)cn3)C2)c(Cl)c1` [Example 67, (3′R,4′S)-6-[(R)-3-(2,6-Dichloro-4-methyl-phenoxy)-pyrrolidin-1-yl]-1′,2′,3′,4′,5′,6′-hexahydro-[3,4′]bipyridinyl-3′-carboxylic acid {2-chloro-5-[(3,3,3-trifluoro-propionylamino)-methyl]-benzyl}-cyclopropyl-amide]: the IC50 worked out at 0.63 nM. Then `COCCCc1ccc(Cl)c(CN(C(=O)C2=C(c3ccc(OCCOc4c(Cl)cc(C)cc4Cl)cc3)C[C@@H]3CNC[C@H]2N3)C2CC2)c1` [Example 4, (1R,5S)-7-{4-[2-(2,6-Dichloro-4-methyl-phenoxy)-ethoxy]-phenyl}-3,9-diaza-bicyclo[3.3.1]non-6-ene-6-carboxylic acid [2-chloro-5-(3-methoxy-propyl)-benzyl]-cyclopropyl-amide], with 0.2 nM; and `COCCCc1ccc(Cl)c(CN(C(=O)C2=C(c3ccc(OCCOc4c(Cl)cc(C)cc4Cl)nc3)CCNC2)C2CC2)c1` [Example 18, 6-[2-(2,6-Dichloro-4-methyl-phenoxy)-ethoxy]-1′,2′,5′,6′-tetrahydro-[3,4′]bipyridinyl-3′-carboxylic acid [2-chloro-5-(3-methoxy-propyl)-benzyl]-cyclopropyl-amide], with 0.5 nM; and `CNC(=O)CCc1ccc(Cl)c(CN(C(=O)[C@H]2CNCC[C@@H]2c2ccc(OCc3cc(-c4c(F)ccc(F)c4Cl)no3)cc2)C2CC2)c1` [Example 102, (3R,4S)-4-{4-[3-(2-Chloro-3,6-difluoro-phenyl)isoxazol-5-ylmethoxy]-phenyl}-piperidine-3-carboxylic Acid [2-chloro-5-(2-methylcarbamoyl-ethyl)benzyl]-cyclopropyl-amide], with 0.08 nM. With `O=C(NCc1ccc(Cl)c(CN(C(=O)[C@H]2CNCC[C@@H]2c2ccc(OCc3cc(-c4c(F)ccc(F)c4Cl)no3)cc2)C2CC2)c1)C1CC1` [Example 83, (3R,4S)-4-{4-[3-(2-Chloro-3,6-difluoro-phenyl)-isoxazol-5-ylmethoxy]-phenyl}-piperidine-3-carboxylic acid {2-chloro-5-[(cyclopropanecarbonyl-amino)-methyl]-benzyl}-cyclopropyl-amide] the figure was 0.18 nM.

Source of the values: US7968720B2, “Secondary amines as renin inhibitors” (Actelion Pharmaceuticals Ltd., priority 2006, dated 2011).
